Measured values: US20250186472A1, “COMBINATION OF POH AND REMDESIVIR FOR TREATMENT OF CNS INFECTIONS” (NeOnc Technologies, Inc., priority 2020, published 2025)
Entries after “also recorded” stand apart in the source; their conditions may differ.

How the values were obtained:
GL261 mouse glioma [1] = assay: NEO100-mediated human CAR T cell delivery to brain and tumor (CD3 IHC); type: in vivo
Method: 2-million CD19 and Lym-1 human CAR T cells that were suspended in 0.9% saline working solution to be used for the IV injection with and without intracardiac NEO100.
Preparation of the working solution for intracardiac injection of NEO100: 3% NEO100 suspended in 0.9% saline.
40 μl 3% NEO100 in saline was injected slowly to complete intracardiac application. Direct cell injection into the heart could cause local microinfaractions if the cells are clumpy during injection, hemopericardium and death as a consequence. This is why ultrasound guided injections with a small 30 G needle is important to minimize these potential adverse effects, (1) enabling the visualization of the needle tract to ensure that the needle enters the left ventricle only, and (2) subsequent monitoring of the heart through not only ECG but visualization of heart wall function after the injection. The fine gauge of the needle ensures that the cells are not clumpy when the cells are injected through intracardiac puncture.
Immediate after the completion of NEO100 injection, 2 million human CAR T cells in 40 μl PBS were injected through tail vein catheter that pre-primed with saline solution. To avoid the possible adverse effects mentioned above by direct cell injection through intracardiac application, we set up 2-step procedures for the study.
Step 1: 40 μl 3% NEO100 in saline was injected slowly to complete intracardiac application. This procedure allows NEO100 to exert the function of BBB disruption.
Step 2:2-million CAR T cells were injected by IV through tail vein catheter.
Brain Perfusion—In order to rule out the residue left over inside the blood vessel after euthanizing, the testing animals were perfused by 10 ml 0.9% normal saline solution through left ventricle to flush out the blood.
Confocal Imaging—8 UM fresh frozen sections were made by cryostasis machine and pasted on microslide. Coverslip was mounted on the brain section by DAPI mounting medium before Confocal examination. […]

GL261 mouse glioma [2] = assay: Anti-mouse PD-1 antibody therapeutic efficacy (survival) in intracranial syngeneic glioma; type: in vivo, C57 BL/6 mice; settings: IC 40 μl 5% NEO100 and/or IV anti-PD1 2.5 mg/kg; treatment from day 7
Method: 100,000 GL261 mouse glioma cells were injected intracranially to immune competent mice, C57 BL/6. 7 days post the injection, the mice were randomly divided into 4 experimental groups, and initiated the treatment at the same day. • Group 1. Control: IV and Intracardiac injection of 40 μl Saline Solution (5). • Group 2. Antibody treated mice: IV 40 μl Anti-mouse PD1 antibody at the dose of 2.5 mg/kg (5). • Group 3. NEO100 treated mice: Intracardiac injection of 40 μl 5% NEO100(5). • Group 4. Combination of NEO100 and antibody treated mice: Intracardiac 40 μl 5% NEO100, followed by IV 40 μl Anti-PD1 antibody at the dose of 2.5 mg/kg (6).
Animal survival data were plotted using the Kaplan-Meier method. One-way ANOVA was used for the overall test for differences. Grouped comparisons were performed using the Tukey method of adjusting for multiple comparisons. Logrank (Mantel-Cox) test was applied for the comparison of survival curves. A statistical evaluation result of p<0.05 was considered significant. • Control vs IC NEO100+IV Anti-mouse PD-1: *** P<0.0003 • Control vs IV Anti-mouse PD-1: ns, p=0.31 • IV Anti-mouse PD-1 vs IC NEO100+IV Anti-mouse: ** P<0.005 • Control vs IC NEO100: ns, p=0.397

[3] = test system: Madin-Darby Canine Kidney (MDCK) cells; assay: In vitro BBB tight junction model (Transwell, TEER, fluorescent antibody); type: cell-based
Method: The labelled components are Transwell chemotaxis chamber; upper chamber; porous membrane and lower chamber. Transwell culture chambers (pore size: 0.8 μm). Madin-Darby Canine Kidney (MDCK) cells are epithelial cells. TEER: transepithelial/transendothelial electrical resistance. Fluorescence Ab: Alexa Fluo®488; donkey anti-rat IgG (H+L). Fluorescence was measured in the lower chamber in about 120 minutes.

[4] = test system: BBB in an in vitro BBB model; assay: In vitro BBB model, remdesivir transport across Transwell; type: cell-based; settings: POH 1.5 mM; POH-Remdesivir vs H2O-Remdesivir in upper chamber; 4 hours
Method: For the in vitro, cells were plated in the upper chamber of a Transwell. The POH-Remdesivir or H2O-Remdesivir mixture was placed in the upper chamber. POH was at a concentration of 1.5 mM. The media from both upper and lower chambers were collected after 4 hours and quantitated for remdesivir.

[5] = test system: recurrent malignant gliomas; settings: intranasal delivery, cited from earlier work

Method for blood-brain-barrier: Brain Perfusion-Before euthanizing, the testing animals was perfused by 0.9% normal saline solution through left ventricle. The brain was removed and buried in OCT, and stored in −80° C. for further analysis.
Ultrasound Guided Intracardiac Puncture-Briefly, the animals were anesthetized using 2% isoflurane gas and fixed on the platform for intracardiac puncture. To penetrate the syringe needle into intercoastal space promptly through skin and muscle layers into the left ventricle under the guidance of ultrasound imaging. An indication of successful insertion of the needle into the left ventricle is the reflux of fresh arterial blood (pink color in contrast to dark red venous blood) into the syringe.
The extravasation of stained albumin from circulation could be visualized.
NEO100 was delivered via intra-cardiac injection (left ventricle) to determine if there is increased uptake of Evans Blue, a BBB nonpermeable small molecule (dopamine), or antibodies into the brain. […] Different concentration of NE0100 (40 μl in 0.9% saline) was tested through intracardiac puncture, followed by immediate intravenous application of 2% Evans Blue (40 μl in volume). The brain was removed after perfusion.
Experimental groups include: • IC 2% EB only • IC 20% ethanol+2% EB • IC 20% ethanol+2% EB+5% NEO100 • IC 20% ethanol+5% NEO100, followed by 2% EB tail vein injection • IV 20% ethanol+2% EB+5% NEO100 • IV 20% ethanol+2% EB
The immune competent C57 BL/6 mice was injected with 5% NEO100 (v/v) through intracardiac puncture (IC), followed by intravenous injection of 2% Evans Blue at different time points, such as 0, 5 min, 15 min, 30 min, 1-hour, 2-hour, 3-hour, and 4 hours, post the IC injection.
The experimental procedure included: • 1. Intracardiac Injection (IC): 5% NEO100. • 2. Followed by intravenous injection (IV) of 2% EB at different times. • 3. The testing animals were euthanized one hour after the IV injection.

C=C(C)[C@@H]1CC=C(CO)CC1 [NEO100, perillyl alcohol]
severe adverse effect or animal death (GL261 mouse glioma [1]; 3% NEO100 intracardiac injection, 40 μl): does not cause any severe adverse effect or animal death | penetration of human CAR T cells into the tumor formed inside the brain (GL261 mouse glioma [1]; IC 3% NEO100 then IV 2 million anti-CD19 or Lym-1 CAR T cells, compared to IV only, 6 h): greatly increase the penetration | CD3 positive cells in the normal parts of brain (GL261 mouse glioma [1]; IC NEO100 vs IV injection only samples): More CD3 positive cells | animal survival (GL261 mouse glioma [2]): dead | penetration of fluorescence labelled antibody across in vitro BBB model ([3]; Alexa Fluor 488 donkey anti-rat IgG, lower chamber at about 120 minutes): transiently allow labeled antibodies to transiently cross it; also recorded: enhanced penetration | TEER ([3]; NEO100 2 mM): decreased | delivery of remdesivir across the BBB [4]: very efficient | disturbance of the BBB (Evans Blue uptake into brain) (blood-brain-barrier; 1:1000 dilution (6.5 mM 40 μl) IC, then IV 2% Evans Blue): still effective to disturb the BBB | dopamine delivery to brain (blood-brain-barrier; intracardiac NEO100): mediated dopamine delivery through the breached blood-brain-barrier | opening of the BBB for antibodies (blood-brain-barrier; intracardiac injection (equivalent to intra-arterial injection for mice)): could open the BBB for antibodies | tight junction in the brain (blood-brain-barrier; intracardiac injection of 5% NEO100 compared to normal brain): breached dramatically | safety of intraarterial administration (blood-brain-barrier; mouse, in vivo): safe | treated patients achieving 6 month progression-free period ([5]; 140 treated patients): 50% | disease remission, several patients [5]: ≤ 3 years | disease response [5]: regression or stabilization of the disease | side effects from the treatment [5]: almost non-existent
